Experimental data taken from PMC6273621, “Synthesis and the Biological Activity of Phosphonylated 1,2,3-Triazolenaphthalimide Conjugates” (Molecules, 2016).
Where two headings read alike, the source gives them in different places.

Tests used:
TK+ VZV strain = experiment: microbe, parasite or virus in culture; assay type: cell-based, varicella-zoster virus (VZV) strain Oka; details: for EC50: Human alphaherpesvirus 3, HEL, read-out: Antiviral Activity EC50, TK+ VZV Strain, HEL cell cultures, concentration reducing virus plaque formation by 50%
TK− VZV strain = experiment: microbe, parasite or virus in culture; assay type: cell-based, varicella-zoster virus (VZV) strain 07−1; details: Human alphaherpesvirus 3, HEL, read-out: Antiviral Activity EC50, TK− VZV Strain, HEL cell cultures; concentration reducing virus plaque formation by 50%
[1] = system: murine leukemia (L1210) cells; experiment: Cytostatic activity, L1210 cell proliferation; assay type: cell-based; details: Mus musculus, read-out: IC50 L1210
Method: (§1) All assays were performed in 96-well microtiter plates. To each well were added (5–7.5) × 10^4 tumor cells and a given amount of the test compound. The cells were allowed to proliferate for 48 h (murine leukemia L1210 cells) or 72 h (human lymphocytic CEM and human cervix carcinoma HeLa cells) at 37 °C in a humidified CO2-controlled atmosphere. At the end of the incubation period, the cells were counted in a Coulter counter.

[2] = system: human dermal microvascular endothelial HMEC-1 cells; experiment: Cytostatic activity, HMEC-1 cell proliferation; assay type: cell-based
HEL cells = experiment: Cytotoxicity, cell morphology (MCC) in HEL cells; assay type: cell-based, human; details: minimum cytotoxic concentration causing microscopically detectable alteration of cell morphology
From the text: The cytotoxicity of the tested compounds toward the uninfected host cells was defined as the minimum cytotoxic concentration (MCC) that causes a microscopically detectable alteration of normal cell morphology.

[3] = system: human T-lymphocyte (CEM) cells; experiment: Cytostatic activity, CEM cell proliferation; assay type: cell-based; details: CCRF-CEM, 72 h, read-out: IC50 CEM
Method: as §1

[4] = system: human cervix carcinoma cells (HeLa); experiment: Cytostatic activity, HeLa cell proliferation; assay type: cell-based; details: 72 h, read-out: IC50 HeLa
Method: as §1

SMILES: CN(C)CCN1C(=O)c2cccc3cc(N)cc(c23)C1=O [Amonafide, reference compound]
- EC50 (TK+ VZV strain): 5.36 µM
- EC50 (TK− VZV strain): 7.82 µM
- IC50 ([1]; L1210, cell proliferation, 48 h): 1 ± 0.4 µM
- IC50 ([2]; HMEC-1, cell proliferation, read-out: IC50 HMEC-1): 0.31 µM
- Cytotoxicity, Cell Morphology (MCC) (HEL cells): 20 μM
- IC50 ([3]; cell proliferation): 0.54 ± 0.5 µM
- IC50 ([4]; cell proliferation): 2 ± 1.2 µM

SMILES: CCOP(=O)(CCCn1cc(CN2C(=O)c3cccc4cccc(c34)C2=O)nn1)OCC [Compound 14c, Diethyl 3-{4-[(1,3-Dioxo-1H-benzo[de]isoquinolin-2(3H)-yl)methyl]-1H-1,2,3-triazol-1-yl}propylphosphonate]
- EC50 (TK+ VZV strain): > 100 µM
- EC50 (TK− VZV strain): 64.5 µM
- IC50 ([1]; L1210, 48 h): ≥ 250 µM
- IC50 ([2]; HMEC-1, read-out: IC50 HMEC-1): ≥ 250 µM
- melting point: 131 to 132 °C
- Cytotoxicity, Cell Morphology (MCC) (HEL cells): >100 μM
- IC50 [3]: 124 ± 19 µM
- IC50 [4]: 172 ± 20 µM

SMILES: CCOP(=O)(CCCCn1cc(CN2C(=O)c3cccc4cccc(c34)C2=O)nn1)OCC [Compound 14d, Diethyl 4-{4-[(1,3-Dioxo-1H-benzo[de]isoquinolin-2(3H)-yl)methyl]-1H-1,2,3-triazol-1-yl}butylphosphonate]
- EC50 (TK+ VZV strain): 86.4 µM
- EC50 (TK− VZV strain): 56.7 µM
- IC50 ([1]; L1210, 48 h): 156 ± 40 µM
- IC50 ([2]; HMEC-1, read-out: IC50 HMEC-1): 180 ± 54 µM
- melting point: 131 to 132 °C
- Cytotoxicity, Cell Morphology (MCC) (HEL cells): >100 μM
- IC50 [3]: 119 ± 3 µM
- IC50 [4]: 150 ± 11 µM

SMILES: CCOP(=O)(OCC)C(O)Cn1cc(CN2C(=O)c3cccc4cccc(c34)C2=O)nn1 (stereo not drawn) [Compound 14e, Diethyl 2-{4-[(1,3-Dioxo-1H-benzo[de]isoquinolin-2(3H)-yl)methyl]-1H-1,2,3-triazol-1-yl}-1-hydroxyethylphosphonate]
- EC50 (TK+ VZV strain): 69.9 µM
- EC50 (TK− VZV strain): > 100 µM
- IC50 ([1]; L1210, 48 h): > 250 µM
- IC50 ([2]; HMEC-1, read-out: IC50 HMEC-1): ≥ 250 µM
- melting point: 186 to 188 °C
- Cytotoxicity, Cell Morphology (MCC) (HEL cells): >100 μM
- IC50 [3]: > 250 µM
- IC50 [4]: ≥ 250 µM

SMILES: CCOP(=O)(CCOCCn1cc(CN2C(=O)c3cccc4cccc(c34)C2=O)nn1)OCC [Compound 14h, Diethyl 2-(2-{4-[(1,3-Dioxo-1H-benzo[de]isoquinolin-2(3H)-yl)methyl]-1H-1,2,3-triazol-1-yl}ethoxy)ethylphosphonate]
- EC50 (TK+ VZV strain): > 100 µM
- EC50 (TK− VZV strain): 74.6 µM
- IC50 ([1]; L1210, 48 h): 196 ± 32 µM
- IC50 ([2]; HMEC-1, read-out: IC50 HMEC-1): 222 ± 39 µM
- melting point: 156 to 158 °C
- Cytotoxicity, Cell Morphology (MCC) (HEL cells): >100 μM
- IC50 [3]: 171 ± 25 µM
- IC50 [4]: 154 ± 22 µM

SMILES: CCOP(=O)(CCn1cc(CN2C(=O)c3cccc4c(Br)ccc(c34)C2=O)nn1)OCC [Compound 15b]
- EC50 (TK+ VZV strain): 34.2 µM
- EC50 (TK− VZV strain): 38.1 µM
- IC50 ([1]; L1210, 48 h): 14 ± 1 µM
- IC50 ([2]; HMEC-1, read-out: IC50 HMEC-1): 152 ± 1 µM
- melting point: 132 to 134 °C
- Cytotoxicity, Cell Morphology (MCC) (HEL cells): >100 μM
- IC50 [3]: 56 ± 20 µM
- IC50 [4]: 62 ± 20 µM

SMILES: CCOP(=O)(CCCCn1cc(CN2C(=O)c3cccc4c(Br)ccc(c34)C2=O)nn1)OCC [Compound 15d, Diethyl 4-{4-[(6-Bromo-1,3-dioxo-1H-benzo[de]isoquinolin-2(3H)-yl)methyl]-1H-1,2,3-triazol-1-yl}butylphosphonate]
- EC50 (TK+ VZV strain): 40.4 µM
- EC50 (TK− VZV strain): 37.5 µM
- IC50 ([1]; L1210, 48 h): 17 ± 3 µM
- IC50 ([2]; HMEC-1, read-out: IC50 HMEC-1): 92 ± 43 µM
- Cytotoxicity, Cell Morphology (MCC) (HEL cells): 100 μM
- IC50 [3]: 22 µM
- IC50 [4]: 55 ± 2 µM

SMILES: CCOP(=O)(CC(O)Cn1cc(CN2C(=O)c3cccc4c(Br)ccc(c34)C2=O)nn1)OCC (stereo not drawn) [Compound 15f, Diethyl 3-{4-[(6-Bromo-1,3-dioxo-1H-benzo[de]isoquinolin-2(3H)-yl)methyl]-1H-1,2,3-triazol-1-yl}-2-hydroxypropylphosphonate]
- EC50 (TK+ VZV strain): 86.4 µM
- EC50 (TK− VZV strain): > 100 µM
- IC50 ([1]; L1210, 48 h): 23 ± 3 µM
- IC50 ([2]; HMEC-1, read-out: IC50 HMEC-1): 152 ± 1 µM
- melting point: 152 to 153 °C
- Cytotoxicity, Cell Morphology (MCC) (HEL cells): >100 μM
- IC50 [3]: 60 ± 13 µM
- IC50 [4]: 87 ± 21 µM

SMILES: CCOP(=O)(CCOCCn1cc(CN2C(=O)c3cccc4c(Br)ccc(c34)C2=O)nn1)OCC [Compound 15h, Diethyl 2-(2-{4-[(6-Bromo-1,3-dioxo-1H-benzo[de]isoquinolin-2(3H)-yl)methyl]-1H-1,2,3-triazol-1-yl}ethoxy)ethylphosphonate]
- EC50 (TK+ VZV strain): 37.1 µM
- EC50 (TK− VZV strain): 70.8 µM
- IC50 ([1]; L1210, 48 h): 26 ± 2 µM
- IC50 ([2]; HMEC-1, read-out: IC50 HMEC-1): 151 µM
- melting point: 92 to 93 °C
- Cytotoxicity, Cell Morphology (MCC) (HEL cells): >100 μM
- IC50 [3]: 29 ± 11 µM
- IC50 [4]: 61 ± 15 µM

SMILES: CCOP(=O)(Cn1cc(CN2C(=O)c3cccc4cc([N+](=O)[O-])cc(c34)C2=O)nn1)OCC [Compound 16a, Diethyl {4-[(5-Nitro-1,3-dioxo-1H-benzo[de]isoquinolin-2(3H)-yl)methyl]-1H-1,2,3-triazol-1-yl}methylphosphonate]
- EC50 (TK+ VZV strain): 39.1 µM
- EC50 (TK− VZV strain): 64.5 µM
- IC50 ([1]; L1210, 48 h): 66 ± 7 µM
- IC50 ([2]; HMEC-1, read-out: IC50 HMEC-1): 154 ± 1 µM
- melting point: 147 to 148 °C
- Cytotoxicity, Cell Morphology (MCC) (HEL cells): >100 μM
- IC50 [3]: 69 ± 1 µM
- IC50 [4]: 44 ± 19 µM

SMILES: CCOP(=O)(CCn1cc(CN2C(=O)c3cccc4cc([N+](=O)[O-])cc(c34)C2=O)nn1)OCC [Compound 16b, Diethyl 2-{4-[(5-Nitro-1,3-dioxo-1H-benzo[de]isoquinolin-2(3H)-yl)methyl]-1H-1,2,3-triazol-1-yl}ethylphosphonate]
- Potency toward the TK+ VZV strain (in words) (TK+ VZV strain; HEL cell cultures): no potency
- EC50 (TK+ VZV strain): > 100 µM
- EC50 (TK− VZV strain): 27.6 µM
- IC50 ([1]; L1210, 48 h): > 250 µM
- IC50 ([2]; HMEC-1, read-out: IC50 HMEC-1): 118 ± 71 µM
- Cytotoxicity, Cell Morphology (MCC) (HEL cells): 100 μM
- IC50 [3]: 176 ± 37 µM
- IC50 [4]: 54 ± 21 µM

SMILES: CCOP(=O)(CCCn1cc(CN2C(=O)c3cccc4cc([N+](=O)[O-])cc(c34)C2=O)nn1)OCC [Compound 16c, Diethyl 3-{4-[(5-Nitro-1,3-dioxo-1H-benzo[de]isoquinolin-2(3H)-yl)methyl]-1H-1,2,3-triazol-1-yl}propylphosphonate]
- EC50 (TK+ VZV strain): 32.8 µM
- EC50 (TK− VZV strain): 47.8 µM
- IC50 ([1]; L1210, 48 h): 34 ± 9 µM
- IC50 ([2]; HMEC-1, read-out: IC50 HMEC-1): 136 ± 22 µM
- melting point: 113 to 114 °C
- Cytotoxicity, Cell Morphology (MCC) (HEL cells): >100 μM
- IC50 [3]: 55 ± 23 µM
- IC50 [4]: 29 ± 17 µM

SMILES: CCOP(=O)(CCCCn1cc(CN2C(=O)c3cccc4cc([N+](=O)[O-])cc(c34)C2=O)nn1)OCC [Compound 16d, Diethyl 4-{4-[(5-Nitro-1,3-dioxo-1H-benzo[de]isoquinolin-2(3H)-yl)methyl]-1H-1,2,3-triazol-1-yl}butylphosphonate]
- EC50 (TK+ VZV strain): 29.9 µM
- EC50 (TK− VZV strain): 53.9 µM
- IC50 ([1]; L1210, 48 h): 70 ± 52 µM
- IC50 ([2]; HMEC-1, read-out: IC50 HMEC-1): 126 ± 37 µM
- melting point: 150 to 151 °C
- Cytotoxicity, Cell Morphology (MCC) (HEL cells): >100 μM
- IC50 [3]: 95 ± 4 µM
- IC50 [4]: 81 ± 4 µM

SMILES: CCOP(=O)(CCOCCn1cc(CN2C(=O)c3cccc4cc([N+](=O)[O-])cc(c34)C2=O)nn1)OCC [Compound 16h, Diethyl 2-(2-{4-[(5-Nitro-1,3-dioxo-1H-benzo[de]isoquinolin-2(3H)-yl)methyl]-1H-1,2,3-triazol-1-yl}ethoxy)ethylphosphonate]
- EC50 (TK+ VZV strain): 40.9 µM
- EC50 (TK− VZV strain): 64.5 µM
- IC50 ([1]; L1210, 48 h): 64 ± 11 µM
- IC50 ([2]; HMEC-1, read-out: IC50 HMEC-1): 152 ± 1 µM
- Cytotoxicity, Cell Morphology (MCC) (HEL cells): >100 μM
- IC50 [3]: 66 µM
- IC50 [4]: 56 ± 16 µM

SMILES: CCOP(=O)(CNC(=O)Cn1cc(CN2C(=O)c3cccc4cc([N+](=O)[O-])cc(c34)C2=O)nn1)OCC [Compound 16i, Diethyl 2-{4-[(5-Nitro-1,3-dioxo-1H-benzo[de]isoquinolin-2(3H)-yl)methyl]-1H-1,2,3-triazol-1-yl}acetamido-methylphosphonate]
- IC50 ([1]; L1210, 48 h): > 250 µM
- IC50 ([2]; HMEC-1, read-out: IC50 HMEC-1): > 250 µM
- melting point: 217 to 219 °C
- IC50 [3]: > 250 µM
- IC50 [4]: 86 ± 6 µM
